Experimental data reported in the supplement of paper PMC13207355.
Counter-ions that a name gives are not always drawn.

Columns and labels:
Conditions in all cases: exposure time: 72 h
E34 [1] = patient-derived glioblastoma stem cells of proneural subtype; test: phenotypic distance (Euclidean, principal components) from DMSO controls (arbitrary units); higher = stronger morphological change
E28 [2] = patient-derived glioblastoma stem cells of classical subtype; test: as above
E31 [3] = patient-derived glioblastoma stem cells of proneural subtype; test: as above
E21 [4] = patient-derived glioblastoma stem cells of mesenchymal subtype; test: as above
E57 [5] = patient-derived glioblastoma stem cells of mesenchymal subtype; test: as above
E13 [6] = patient-derived glioblastoma stem cells of classical subtype; test: as above
FT3469 [7] = normal neural stem cell line; test: as above
E34 [8] = test: surviving fraction (nuclei count normalised to DMSO); higher = more cells surviving (less toxic)
E28 [9] = test: as above
E31 [10] = test: as above
E21 [11] = test: as above
E57 [12] = test: as above
E13 [13] = test: as above
FT3469 [14] = test: as above
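Throughout, for phenotypic distance (Euclidean, principal components) from DMSO controls: cell Painting imaging in 384-well plates, CellProfiler features reduced to at least 20 principal components, Euclidean distance versus same-plate DMSO vehicle wells (0.1% v/v), median over six images per well.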
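Throughout, for surviving fraction (nuclei count normalised to DMSO): nuclei counted by high-content imaging of Hoechst-stained cells in laminin-coated 384-well plates, relative to 0.1% DMSO vehicle wells, with staurosporine as cell-death control.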

N=C(N)NCc1cccc(I)c1 [Iobenguane sulfate]
Conditions	phenotypic distance	surviving fraction
E13 [6], 4.1 nM	0.573	–
E13 [6], 12.3 nM	0.965	–
E13 [6], 37 nM	0.696	–
E13 [6], 111.1 nM	0.835	–
E13 [6], 333.3 nM	0.643	–
E13 [6], 1000 nM	0.541	–
E13 [6], 3000 nM	0.796	–
E13 [13], 4.1 nM	–	0.873
E13 [13], 12.3 nM	–	0.869
E13 [13], 37 nM	–	0.916
E13 [13], 111.1 nM	–	0.908
E13 [13], 333.3 nM	–	0.989
E13 [13], 1000 nM	–	0.922
E13 [13], 3000 nM	–	1.08
E21 [4], 4.1 nM	0.441	–
E21 [4], 12.3 nM	0.695	–
E21 [4], 37 nM	1.24	–
E21 [4], 111.1 nM	0.881	–
E21 [4], 333.3 nM	0.867	–
E21 [4], 1000 nM	0.81	–
E21 [4], 3000 nM	0.765	–
E21 [11], 4.1 nM	–	0.982
E21 [11], 12.3 nM	–	0.855
E21 [11], 37 nM	–	0.854
E21 [11], 111.1 nM	–	0.921
E21 [11], 333.3 nM	–	0.972
E21 [11], 1000 nM	–	1.05
E21 [11], 3000 nM	–	0.879
E28 [2], 4.1 nM	0.591	–
E28 [2], 12.3 nM	0.866	–
E28 [2], 37 nM	0.64	–
E28 [2], 111.1 nM	0.721	–
E28 [2], 333.3 nM	0.496	–
E28 [2], 1000 nM	0.786	–
E28 [2], 3000 nM	0.814	–
E28 [9], 4.1 nM	–	0.875
E28 [9], 12.3 nM	–	1.03
E28 [9], 37 nM	–	0.94
E28 [9], 111.1 nM	–	1.05
E28 [9], 333.3 nM	–	1.04
E28 [9], 1000 nM	–	1.05
E28 [9], 3000 nM	–	0.936
E31 [3], 4.1 nM	0.547	–
E31 [3], 12.3 nM	0.684	–
E31 [3], 37 nM	0.567	–
E31 [3], 111.1 nM	0.714	–
E31 [3], 333.3 nM	0.802	–
E31 [3], 1000 nM	0.469	–
E31 [3], 3000 nM	0.734	–
E31 [10], 4.1 nM	–	0.961
E31 [10], 12.3 nM	–	0.997
E31 [10], 37 nM	–	0.864
E31 [10], 111.1 nM	–	1.15
E31 [10], 333.3 nM	–	1.07
E31 [10], 1000 nM	–	1.13
E31 [10], 3000 nM	–	0.964
E34 [1], 4.1 nM	0.386	–
E34 [1], 12.3 nM	0.879	–
E34 [1], 37 nM	0.823	–
E34 [1], 111.1 nM	0.771	–
E34 [1], 333.3 nM	1.44	–
E34 [1], 1000 nM	0.934	–
E34 [1], 3000 nM	0.966	–
E34 [8], 4.1 nM	–	0.935
E34 [8], 12.3 nM	–	1.1
E34 [8], 37 nM	–	1.02
E34 [8], 111.1 nM	–	0.975
E34 [8], 333.3 nM	–	1.08
E34 [8], 1000 nM	–	1.1
E34 [8], 3000 nM	–	1.25
E57 [5], 4.1 nM	0.755	–
E57 [5], 12.3 nM	0.843	–
E57 [5], 37 nM	0.712	–
E57 [5], 111.1 nM	0.905	–
E57 [5], 333.3 nM	0.728	–
E57 [5], 1000 nM	0.452	–
E57 [5], 3000 nM	0.547	–
E57 [12], 4.1 nM	–	1.03
E57 [12], 12.3 nM	–	0.978
E57 [12], 37 nM	–	0.973
E57 [12], 111.1 nM	–	1.03
E57 [12], 333.3 nM	–	0.992
E57 [12], 1000 nM	–	1.01
E57 [12], 3000 nM	–	1.04
FT3469 [7], 4.1 nM	0.354	–
FT3469 [7], 12.3 nM	3.38	–
FT3469 [7], 37 nM	0.885	–
FT3469 [7], 111.1 nM	1.06	–
FT3469 [7], 333.3 nM	1.08	–
FT3469 [7], 1000 nM	0.871	–
FT3469 [7], 3000 nM	0.634	–
FT3469 [14], 4.1 nM	–	1.08
FT3469 [14], 12.3 nM	–	1.12
FT3469 [14], 37 nM	–	0.963
FT3469 [14], 111.1 nM	–	1.09
FT3469 [14], 333.3 nM	–	1.1
FT3469 [14], 1000 nM	–	0.904
FT3469 [14], 3000 nM	–	1.14
